Measured values as given in patent US11129899B1, “Methotrexate derivatives and uses thereof” (S.S. Manufacturing Co., Ltd, priority 2021, dated 2021).

Tests used:
MCF-7 cells = assay: cells; format: cell-based; details: Homo sapiens, MCF7, 24 h, read-out: IC50 (cytotoxicity)
Method: The human breast cancer cell line, MCF-7, was obtained from American Type Cell Collection (ATCC) (Rockville, Mo., U.S.A.). The cells were cultured to 70-80% confluence in Dulbecco's modified Eagle medium (DMEM) (Gibco, Grand Island, N.Y., U.S.A.) with 10% fetal bovine serum (FBS) (Gibco) at 37° C. and 5% CO2. MCF-7 cells were plated overnight in a 96-well plate (4,000 cells per well). […] Next, 10 μl/well of WST-1/ECS solution from the Quick Cell Proliferation Colorimetric Assay Kit (BioVision, Inc., Milptas, Calif., U.S.A.) was added, and the solution was incubated for 2 hours at 37° C. and 5% CO2. Absorbance was measured at 480 nm with the Biochrom Anthos 2010 microplate reader (Biochrom Ltd., Cambourne, Cambridge, UK). The half maximal inhibitory concentrations (IC50) were calculated from log-linear regression from the absorbance optical density (OD).

Lipid solubility in oil = format: physicochemical
Method: Embodied compound or Methrotrexate in DMSO (3 μg/μl) were dissolved in olive oil, canola oil and sunflower oil(Sigma-Aldrich (St. Louis, Mo., USA)) at 40° C. The suspended were vortexed and centrifuged at 3000 RPM, 10 mins periodically. Oil solvent volume was stepwise increased till completely soluble was observed and the soluble concentration were determined (Table 2). The solutions were left at 24° C. overnight and were centrifuged at 5000 RPM for 20 mins. Ten microliter of embodied compound in oils were added to 100 μl deionized (DI) water. The suspensions were vigorously vortex and left at room temperature.

[1] = biological target: T1, Dihydrofolate reductase (DHFR) (Homo sapiens, UniProt P00374); assay: Dihydrofolate reductase (DHFR) inhibitor assay (Sigma-Aldrich DHFR assay kit); format: biochemical
T1 construct: purchased Sigma-Aldrich
T1 sequence (P00374 1-187): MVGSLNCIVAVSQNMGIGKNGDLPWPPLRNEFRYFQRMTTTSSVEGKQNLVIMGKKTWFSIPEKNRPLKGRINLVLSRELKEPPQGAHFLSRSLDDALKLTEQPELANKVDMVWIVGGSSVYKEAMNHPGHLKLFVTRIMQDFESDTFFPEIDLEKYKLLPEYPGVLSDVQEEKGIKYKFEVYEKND
Method: According to the supplier protocol, the activity of DHFR reductase was measured at […], every 15 seconds for 2.5 minutes, with the Biochrom Anthos 2010 microplate reader (Biochrom Ltd., Cambourne, Cambridge, UK). The enzymatic activity was calculated by the following formula: […]

| SMILES | IC50 (MCF-7 cells) | Solubility in Oil (40° C.) (Lipid solubility in oil; Canola Oil) | Solubility in Oil (40° C.) (Lipid solubility in oil; Olive Oil) | Solubility in Oil (40° C.) (Lipid solubility in oil; Sunflower Oil) | Dihydrofolate reductase (DHFR) activity ([1]; inhibitor 5 mM [sic]) | Dihydrofolate reductase (DHFR) activity ([1]; inhibitor 5 mM [sic], % of no inhibitor) | Dihydrofolate reductase (DHFR) activity ([1]; inhibitor 50 mM [sic]) | Dihydrofolate reductase (DHFR) activity ([1]; inhibitor 50 mM [sic], % of no inhibitor) | Dihydrofolate reductase (DHFR) activity ([1]; inhibitor 500 mM [sic]) | Dihydrofolate reductase (DHFR) activity ([1]; inhibitor 500 mM [sic], % of no inhibitor) |
| --- | --- | --- | --- | --- | --- | --- | --- | --- | --- | --- |
| CN(Cc1cnc2nc(N)nc(N)c2n1)c1ccc(C(=O)N[C@@H](CCC(=O)O)C(=O)O)cc1 [MTX, (2S)-2-[(4-{[(2,4-diaminopteridin-6-yl)methyl](methyl)amino}phenyl)formamido]pentanedioic acid, reference compound] | 3270 µM | less than 0.1 mg/100 ml | less than 0.1 mg/100 ml | less than 0.1 mg/100 ml | – | – | – | – | – | – |
| CC(C)CCC[C@@H](C)[C@H]1CC[C@H]2[C@@H]3CC=C4C[C@@H](OC(=O)NCCCCNCCCNC(=O)[C@H](CCC(=O)O)NC(=O)c5ccc(N(C)Cc6cnc7nc(N)nc(N)c7n6)cc5)CC[C@]4(C)[C@H]3CC[C@]12C [Embodied compound, (4S)-4-{[3-({4-[({[(1R,3aS,3bS,7S,9aR,9bS,11aR)-9a,11a-dimethyl-1-[(2R)-6-methylheptan-2-yl]-1H,2H,3H,3aH,3bH,4H,6H,7H,8H,9H,9aH,9bH,10H,11H,11aH-cyclopenta[a]phenanthren-7-yl]oxy}carbonyl)amino]butyl}amino)propyl]carbamoyl}-4-[(4-{[(2,4-diaminopteridin-6-yl)methyl](methyl)amino}phenyl)formamido]butanoic acid] | 60 µM | 81.3 mg/100 ml | 48.1 mg/100 ml | 103.6 mg/100 ml | 1.261 Unit/mgP | 8.41% | 0.561 Unit/mgP | 3.74% | 0.561 Unit/mgP | 3.74% |
